The record followed here is US20140348880A1, “Ortho-Aminothiophenol Compounds and Uses Thereof” (Cape Breton University, priority 2013, published 2014).

The subject of assay [1] is P. aeruginosa. Description: Disc diffusion zone of inhibition (Example 2). Type of assay: cell-based, Pseudomonas aeruginosa. The protocol: (§1) The growth medium was prepared by addition of Müller-Hinton agar (38 g) to 1 L distilled water under vigorous stirring and boiled for 10 min until complete dissolution. After cooling to 25° C., the pH value of the medium was 7.3±0.1. The medium was sterilized in an autoclave at 121° C. for 15 min at 20 psi, cooled to 45-50° C. and dispended into sterile Petri dishes on a leveled, horizontal surface to give uniform depth. Stock solutions of the microorganisms were incubated at 37° C. for 24 h and the turbidity of these microbial colony were adjusted visually with sterile saline (0.85% w/v NaCl) to 0.5 McFarland standards (bioMerieux, SA (France) they are made from barium sulfate (BaSO4). Within 15 min after adjusting the turbidity of the suspensions, the Petri dishes were inoculated using sterile cotton buds. The prepared antibiotic assay discs were placed on the surface of the seeded Müller-Hinton agar using flame sterilized forceps.
(§2) Stock solutions of compounds of Formula I, Ia, Ib and Formula II, IIa, pharmaceutically acceptable salts thereof, and metal complexes thereof were made in DMSO and were micropipetted onto the discs for 25 to 200 μg/disc. The discs were dried at ambient temperature for 30-50 min before placement onto the seeded Petri dishes which were then incubated at 37° C. for 24 h. Averaged inhibition zone diameters measurements (mm) have an accuracy of ±0.5 mm; adjacent overlapping ZOI were determined using radii measurements. Antibiotic disc like (sulfamethoxazole 23.75 μg trimethoprim 1.25 μg)/disc, Gentamicin 10 μg/disc and DMSO were used as positive and negative standards (control).
(§3) Antimicrobial test was carried out to evaluate the efficacy of compounds of Formula I, Ia, Ib and Formula II, IIa, pharmaceutically acceptable salts thereof, and metal complexes thereof, as well as control tests with control compounds, against six major pathogenic bacteria namely Bacillus cereus, Pseudomonas aeruginosa, Klebsiella pneumonia, Proteus vulgaris, Staphylococcus aureus and Escherichia coli.
(In general: Agar diffusion results depend on both activity and mobility in agar.)

Assay [2] concerns E. coli. Description: Disc diffusion zone of inhibition (Example 2). Type of assay: cell-based, Escherichia coli. The protocol:
as §1, §2, §3

Assay [3] concerns Klebsiella pneumonia (#13883). Description: In vitro disc diffusion assay, ZOI (Example 3). The format is cell-based. Particulars: K. pnemonia; control; 10 μg/disc. The procedure:
(§4) Sterile assay discs (6 mm diameter) were obtained from VWR Whatman and antibiotic assay discs (6 mm diameter) containing getamicin (10 μg/disc) and the combination drug sulfamethoxazole 23.75 μg/disc and trimethoprim 1.25 μg/disc were obtained from Becton, Dickinson and Company (USA). Dimethyl sulfoxide (DMSO) for microbial experiments was BioReagent™ grade and was purchased from Sigma-Aldrich. The nutrient broth and Müller-Hinton agar was purchased from Becton, Dickinson and Company (USA). Bacillus cereus, Pseudomonas aeruginosa (#27853), Klebsiella pneumonia (#13883), Proteus vulgaris (#13315), Staphylococcus aureus (#25923) and Escherichia coli (#25922) strains were obtained from the American Type Culture Collection (ATCC). All materials in contact with antimicrobial matter was treated for 40 min at 121° C. and 20 psi in a biohazard autoclave bag prior to waste disposing or washing. McFarland turbity standards containing barium sulfate were obtained from bioMérieux.
as §1, with “the” for “these”, “colonies” for “colony”, “standards.” for “standards (bioMerieux, SA (France) they are made from barium sulfate (BaSO4).”
(§5) Stock solutions of compounds and the Cu complexed compounds were made in DMSO and were micropipetted onto the discs for 25 to 200 μg compound/disc. The discs were dried at ambient temperature for 30-50 min before placement onto the seeded Petri dishes which were then incubated at 37° C. for 24 h. Averaged inhibition zone measurements (mm) have an accuracy of ±0.5 mm; adjacent overlapping ZOI were determined using radii measurements.

Assay [4] deals with Escherichia coli (#25922). Description: In vitro disc diffusion assay, ZOI (Example 3). The format is cell-based. Particulars: E. coli; control; 10 μg/disc. The protocol:
as §4
as §1, with “the” for “these”, “colonies” for “colony”, “standards.” for “standards (bioMerieux, SA (France) they are made from barium sulfate (BaSO4).”
as §5

Assay [5] relates to Staphylococcus aureus (#25923). Put plainly: In vitro disc diffusion assay, ZOI (Example 3). The format is cell-based. Conditions: S. aureus; control; 10 μg/disc. The protocol: as §4
as §1, with “the” for “these”, “colonies” for “colony”, “standards.” for “standards (bioMerieux, SA (France) they are made from barium sulfate (BaSO4).”
as §5

The subject of assay [6] is Bacillus cereus. Put plainly: In vitro disc diffusion assay, ZOI (Example 3). Type of assay: cell-based. Particulars: B. cereus; control; 10 μg/disc. The protocol: as §4
as §1, with “the” for “these”, “colonies” for “colony”, “standards.” for “standards (bioMerieux, SA (France) they are made from barium sulfate (BaSO4).”
as §5

In assay [7] the test system is Proteus vulgaris (#13315). Put plainly: In vitro disc diffusion assay, ZOI (Example 3). Type of assay: cell-based. Particulars: P. vulgaris; control; 10 μg/disc. The procedure: as §4
as §1, with “the” for “these”, “colonies” for “colony”, “standards.” for “standards (bioMerieux, SA (France) they are made from barium sulfate (BaSO4).”
as §5

In assay [8] the test system is Pseudomonas aeruginosa (#27853). Put plainly: In vitro disc diffusion assay, ZOI (Example 3). The format is cell-based. Particulars: P. aeruginosa; control; 10 μg/disc. The procedure:
as §4
as §1, with “the” for “these”, “colonies” for “colony”, “standards.” for “standards (bioMerieux, SA (France) they are made from barium sulfate (BaSO4).”
as §5

Assay [9] has as its system P. vulgaris. Description: Disc diffusion zone of inhibition (Example 2). The format is cell-based, Proteus vulgaris. The procedure: as §1, §2, §3
In assay [10] the test system is S. aureus. Put plainly: Disc diffusion zone of inhibition (Example 2). The format is cell-based, Staphylococcus aureus. Conditions: S. aureus. The procedure:
as §1, §2, §3

In assay [11] the test system is K. pnemonia. Put plainly: Disc diffusion zone of inhibition (Example 2). Type of assay: cell-based, Klebsiella pneumonia. The procedure: as §1, §2, §3
Assay [12] concerns B. cereus. Put plainly: Disc diffusion zone of inhibition (Example 2). The format is cell-based, Bacillus cereus. The procedure:
as §1, §2, §3

Assay [13] relates to S. aureus. Description: Disc diffusion zone of inhibition (Example 2). The format is cell-based. Particulars: Staphylococcus aureus.
The subject of assay [14] is B. cereus. Put plainly: Disc diffusion zone of inhibition (Example 2). Particulars: Bacillus cereus. Type of assay: cell-based.
Assay [15] is described as follows: DPPH antioxidant activity test. Conditions: 50 μg compound in 3 mL methanol; DPPH 150 μL 1 mM; 30 min, 25 °C; absorbance 517 nm. The protocol:
In addition to antibacterial properties, antioxidant activity was assessed in the compounds of Formula I and II and metal complexes thereof as antioxidant compounds play an important role in remediating the toxic effects of reactive oxygen species and other free radicals. The main characteristic of an antioxidant compound is its ability to trap free radicals. Highly reactive free radicals and oxygen species are present in biological systems from a wide variety of sources. Free radical damage is known to occur during bacterial and other microbial infections. Free radicals are produced by cells of the immune system during an active infection, and generally as a result of the inflammatory processes.
DPPH (2,2-diphenyl-1-picryl-hydrazyl, 150 μL, 1 mM solution in methanol) was added to 3 mL methanol in a cuvette (0.5 in diameter) and UV-vis absorption recorded at 517 nm for baseline reading. In a cuvette, DPPH (150 μL, 1 mM solution in methanol) was added to a solution containing compound in 3 mL methanol. The reaction was allowed to stir at 25±1° C. for 30 min under exclusion of light. Absorbance was recorded at 517 nm against reference cuvette filled with methanol.

On to Gentamicin, for which the Zone of Inhibition in [1] (10 μg/disc) came to 20 mm; in assay [2] (10 μg/disc) it was 24 mm; in assay [9] (10 μg/disc) it was 24 mm; in assay [10] (10 μg/disc), 25 mm; in assay [11] (10 μg/disc), 25 mm; in assay [12] (10 μg/disc) it was 25 mm. For the same compound, the ZOI in [3] is reported as 9.5 mm; in assay [4] it was 9 mm; in [5] it was 9.5 mm; in [6], 9.5 mm; in assay [7], 9 mm; in assay [8], 7 mm.
As usually defined, the zone of inhibition is the size of the clear area around the sample on an inoculated plate. Low readings indicate a weaker effect on the plate, high ones a stronger effect on the plate. Turning to `Nc1ccccc1SCc1ccccc1` [S-benzyl-ortho-aminothiophenol, S-benzyl ortho-aminothiophenol], the zone of inhibition at 333 µg/disc in assay [13] (333 μg/disc) worked out at 13 mm; in assay [14] (333 μg/disc), 15 mm. For the same compound, the results for the zone of inhibition at 666 µg/disc in [13] (666 μg/disc) and in assay [14] (666 μg/disc) were 15 mm and 16 mm, respectively. For the same compound, the zone of inhibition at 166 µg/disc in assay [10] (Staphylococcus aureus, 166 μg/disc) was determined as 11 mm; in assay [12] (Bacillus cereus, 166 μg/disc), 12 mm.
As for `O=Cc1ccccn1` [2-pyridine carboxaldehyde], the zone of inhibition at 50 µg/disc was 24 mm in [1] (Pseudomonas aeruginosa, 50 μg/disc); 17 mm in assay [2] (Escherichia coli, 50 μg/disc); 22 mm in assay [9] (Proteus vulgaris, 50 μg/disc); 15 mm in [10] (Staphylococcus aureus, 50 μg/disc); 23 mm in [11] (Klebsiella pneumoniae, 50 μg/disc); 20 mm in [12] (Bacillus cereus, 50 μg/disc). The “% Antiox-Act” value in assay [15] was 67.0%.
